Our source for the Ki values is ChEMBL document CHEMBL1156770, “X-ray crystallographic analysis of alpha-ketoheterocycle inhibitors bound to a humanized variant of fatty acid amide hydrolase” (J Med Chem, 2010).

This test addresses T1, Fatty-acid amide hydrolase 1 (Homo sapiens, UniProt O00519).
T1 sequence (O00519 whole entry): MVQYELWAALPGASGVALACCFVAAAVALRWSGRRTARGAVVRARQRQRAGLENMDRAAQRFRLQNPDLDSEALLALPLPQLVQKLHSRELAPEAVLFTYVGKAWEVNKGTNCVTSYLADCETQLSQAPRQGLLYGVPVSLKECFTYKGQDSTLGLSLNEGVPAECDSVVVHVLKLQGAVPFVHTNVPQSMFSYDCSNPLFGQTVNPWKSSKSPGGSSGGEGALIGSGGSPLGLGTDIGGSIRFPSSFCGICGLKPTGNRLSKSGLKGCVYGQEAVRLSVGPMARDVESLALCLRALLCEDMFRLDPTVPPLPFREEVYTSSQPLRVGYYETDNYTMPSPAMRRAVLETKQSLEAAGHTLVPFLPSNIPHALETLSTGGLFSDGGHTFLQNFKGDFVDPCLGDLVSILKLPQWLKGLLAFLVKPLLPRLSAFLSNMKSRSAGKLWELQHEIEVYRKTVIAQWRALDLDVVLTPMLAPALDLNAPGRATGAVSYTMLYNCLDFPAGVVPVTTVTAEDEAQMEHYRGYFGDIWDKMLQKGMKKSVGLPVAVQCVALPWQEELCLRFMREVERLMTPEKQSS
The experiment in a line: Inhibition of FAAH.

In the case of `CCCCCCCC/C=C\CCCCCCCC(=O)c1ncc(-c2ccccn2)o1`, the Ki stood at 3 nM.
